Broadly, the IC50 is the midpoint of a concentration-inhibition curve. A higher IC50 goes with a need for much substance.

Results on 16 molecules are retold here after US6355633B1, “Aryl sulfonic acids and derivatives as FSH antagonists” (American Home Products Corporation, priority 1999, dated 2002).

This assay addresses T1, FSH receptor (Homo sapiens, UniProt P23945).
T1 sequence (P23945 18-695): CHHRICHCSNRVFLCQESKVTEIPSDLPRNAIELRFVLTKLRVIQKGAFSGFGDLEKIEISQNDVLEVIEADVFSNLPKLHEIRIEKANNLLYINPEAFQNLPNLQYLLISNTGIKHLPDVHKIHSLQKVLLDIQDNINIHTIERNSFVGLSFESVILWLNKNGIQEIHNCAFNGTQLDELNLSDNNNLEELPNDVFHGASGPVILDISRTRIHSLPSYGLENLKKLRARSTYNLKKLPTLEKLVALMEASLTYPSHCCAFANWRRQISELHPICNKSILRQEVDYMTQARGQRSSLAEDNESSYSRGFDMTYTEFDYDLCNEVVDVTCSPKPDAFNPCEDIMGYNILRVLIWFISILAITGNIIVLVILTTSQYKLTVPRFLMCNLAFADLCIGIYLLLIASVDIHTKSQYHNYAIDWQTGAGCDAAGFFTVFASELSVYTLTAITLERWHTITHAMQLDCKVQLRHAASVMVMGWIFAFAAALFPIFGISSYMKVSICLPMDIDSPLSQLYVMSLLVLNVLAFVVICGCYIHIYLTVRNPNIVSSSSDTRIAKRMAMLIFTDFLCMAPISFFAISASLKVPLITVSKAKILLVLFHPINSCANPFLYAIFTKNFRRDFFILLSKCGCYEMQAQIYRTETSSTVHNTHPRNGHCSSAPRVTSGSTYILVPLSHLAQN
The assay can be described thus: FSH Receptor Radioligand Membrane Binding Standard Pharmacological Test Procedure. Also noted: expressed in transfected cells. The settings on record: [125I]FSH binding to membranes of CHO cells stably transfected with the human FSH receptor. As for the experimental part: FSH Receptor Radioligand Membrane Binding Standard Pharmacological Test Procedure
Membrane Source: Chinese hamster ovarian cells stably transfected with the human FSH receptor were cultured (Ultra CHO medium containing 1% fetal bovine serum and 200 μg/mL G418) in and harvested. Cells were collected by centrifugation and resulting cell pellets were frozen and stored at −70° C.
Membrane Receptor Preparation: Frozen cell pellets were weighed and resuspended in binding buffer to a final concentration of 30 mg wet weight/mL. Cell suspension for each pellet was homogenized using a Tempest homogenizer (setting=1; 5 strokes; VirTis, Gardiner, N.Y.). Cell homogenates were pooled and 35 mL aliquots were transferred to 50-mL polypropylene copolymer centrifuge tubes (Nalgene cat. #3110-0500). Tubes were spun at 12,000 rpm (SS34 rotor) for 12 min at 4° C. Resulting supernatant fractions were discarded and pellets were stored at −70° C. until use. On the day of the procedure, 35 mL binding buffer was added to each tube (35 mL membrane suspension was sufficient for three 96-well plates). The membrane pellet was dispersed by trituration using a pipet. The resulting suspension wass homogenized using a Tempest homogenizer (3 strokes at setting=1).
Receptor Binding Test procedure: Membrane homogenate (100 μl) was added to each well of a 96-well microtiter plate (Falcon # 3077). All reactions were tested in triplicate. Test compound solutions (50 μl) were added to the designated wells. Total bound counts were determined by adding 50 μl binding buffer containing 4% DMSO to the designated wells. […] Plates were pre-incubated for 15 min at room temperature on shaking platform (setting=3). After preincubation [^125I]FSH (50 μl) was added to each well and plates were incubated for 2 h at room temperature on shaking platform (setting=3). The reaction was terminated by transfer of the membrane preparation to glass fiber filters (Blue Mat #11740; 102×256 mm; Skatron Instruments, Sterling, Va.) that had been pretreated with 1% BSA in wash buffer for at least 30 min, but not longer than 1 h using a 96-well microtiter vacuum harvester (Skatron Instruments). The membrane preparation was washed with 5 cycles of ice-cold wash buffer (200 μl/well/cycle) followed by a pulse wash of 3 cycles (100 μl/well/cycle). The total wash volume per well was 1.3 mL. The filters were dried by a 10 sec aspiration. Disks corresponding to each well of the microtiter plate were punched out of the filter mat into 12×75 mm polypropylene tubes. The radioactivity present on each of the disks was measured using a gamma counter.
An FSH dose response curve (0.001, 0.01, 0.1, 1, 10, and 100 nM) was generated for each binding procedure to monitor procedure to procedrue variability.
FSH Receptor Radioligand Membrane Binding Procedure Buffers and Reagents
Binding buffer is prepared in 11 volumes containing Trizma-HCl, MgCl2, CaCl2 and sodium azide, the pH was adjusted to 7.2 with NaOH, and stored at 4° C. until use. BSA was weighed out on the day of the procedure and added to the amount of buffer required for the procedure (usually 150 mL). The protease inhibitors were prepared as 1 mg/mL stocks (aprotinin, leupeptin, and phosphoramidon were prepared in binding buffer without BSA and protease inhibitors; pepstatin and PMSF were prepared in methanol), stored in 1 mL aliquots at −70° C., and added to the binding buffer on the day of the procedure.
Wash buffer was prepared containing Trizma-HCl, MgCl2 and EDTA, the pH was adjusted to 7.2 with NaOH, and stored at 4° C.
Filter Soak Buffer (pH 7.2)
BSA was weighed out on the day of the procedure and added to 300 mL of wash buffer. The filter soak buffer was used for two procedures before being discarded.
A portion of the stock solution was diluted in binding buffer to a concentration of 200 pM.
FSH Solution for Determining Non-specific Binding: Purified human FSH was prepared as a 100 μM solution in binding buffer without protease inhibitors. […]
In the case of `COc1ccc(C(=O)Nc2ccc(-c3ccc(NC(=O)c4ccc(OC)c(S(=O)(=O)N5CCOCC5)c4)cc3S(=O)(=O)O)c(S(=O)(=O)O)c2)cc1S(=O)(=O)N1CCOCC1` [Example 33g, 4,4′-Bis[4-methoxy-3-(morpholine-4-sulfonyl)benzoylamino]biphenyl-2,2′-(bis)sulfonic Acid], the IC50 worked out at 20 µM.
As for `CS(=O)(=O)Cc1ccc(C(=O)Nc2ccc(/C=C/c3ccc(NC(=O)c4ccc(S(C)(=O)=O)cc4)cc3S(=O)(=O)O)c(S(=O)(=O)O)c2)cc1` [Example 40b, 5-[[4-(Methylsulfonyl)benzoyl]amino]-2-[(E)-2-[4-[[4-[(methylsulfonyl)methyl]benzoyl]amino]-2-sulfophenyl]ethenyl]benzenesulfonic Acid], the figure is 5.2 µM; as for `CS(=O)(=O)c1ccc(C(=O)Nc2ccc(CCc3ccc(NC(=O)c4ccc(S(C)(=O)=O)cc4)cc3S(=O)(=O)O)c(S(=O)(=O)O)c2)cc1` [Example 43e], 4.3 µM.
In the case of `O=C(Nc1ccc(/C=C/c2ccc(NC(=O)c3cccc(CN4CCOCC4)c3)cc2S(=O)(=O)O)c(S(=O)(=O)O)c1)c1cccc(CN2CCOCC2)c1` [Example 33b, 2,2′-[(E)-1,2-Ethenediyl]bis[5-[[3-(4-morpholinylmethyl)benzoyl]amino]benzenesulfonic Acid]], the IC50 came to 4.5 µM. The IC50 values of the last two molecules are within 1.5-fold of each other.
Turning to `O=C(O)CS(=O)(=O)c1ccc(C(=O)Nc2ccc(C=Cc3ccc(NC(=O)c4ccc(S(=O)(=O)CC(=O)O)cc4)cc3S(=O)(=O)O)c(S(=O)(=O)O)c2)cc1` [Example 36a, [4-(4-{2-[4-(4-Carboxymethanesulfonyl-benzoylamino)-2-sulfo-phenyl]-vinyl}-3-sulfo-phenylcarbamoyl)-benzenesulfonyl]-acetic Acid], the IC50 is 16 µM. This IC50 is about 3.6-fold higher than that of the molecule before.
Under `COC(=O)CS(=O)(=O)c1ccc(C(=O)Nc2ccc(C=Cc3ccc(NC(=O)c4ccc(S(=O)(=O)CC(=O)OC)cc4)cc3S(=O)(=O)O)c(S(=O)(=O)O)c2)cc1` [Example 32c, [4-(4-{2-[4-(4-Methoxycarbonylmethanesulfonyl-benzoylamino)-2-sulfo-phenyl]-vinyl}-3-sulfo-phenylcarbomoyl)-benzenesulfonyl]-acetic Acid, Methyl Ester] stands 6.9 µM; under `CSc1ccc(C(=O)Nc2ccc(C=Cc3ccc(NC(=O)c4ccc(SC)c(S(=O)(=O)N5CCOCC5)c4)cc3S(=O)(=O)O)cc2)cc1S(=O)(=O)N1CCOCC1` [Example 59, 5-[4-Methylsulfanyl-3-(morpholine-4-sulfonyl)-benzoylamino]-2-(2-{[4-methylsulfanyl-3-(morpholine-4-sulfonyl)-benzoylamino]-phenyl}-vinyl)-benzenesulfonic Acid], 16 µM.
Turning to `CS(=O)(=O)c1ccc(C(=O)Nc2ccc(/C=C/c3ccc(NC(=O)c4ccc(S(C)(=O)=O)c(N)c4)cc3S(=O)(=O)O)c(S(=O)(=O)O)c2)cc1N` [Example 35, 2,2′-[(E)-1,2-Ethenediyl]bis[5-[[3-amino-4-(methylsulfonyl)benzoyl]amino]benzenesulfonic Acid]], the IC50 is 4.1 µM.
On to `COC(=O)CSc1ccc(C(=O)Nc2ccc(/C=C/c3ccc(NC(=O)c4ccc(SCC(=O)OC)c(S(=O)(=O)N5CCOCC5)c4)cc3S(=O)(=O)O)c(S(=O)(=O)O)c2)cc1S(=O)(=O)N1CCOCC1` [Example 32p, [4-[4-(2-{4-[4-Methoxycarbonylmethanesulfanyl-3-(morpholine-4-sulfonyl)-benzoylamino]-2-sulfo-phenyl}-(E)-vinyl)-3-sulfo-phenylcarbamoyl]-2-(morpholine-4-sulfonyl)-phenylsulfanyl]-acetic Acid, Methyl Ester], for which the IC50 came to 15 µM.
As for `CS(=O)(=O)Cc1ccc(C(=O)Nc2ccc(/C=C/c3ccc(NC(=O)c4ccc(CS(C)(=O)=O)cc4)cc3S(=O)(=O)O)c(S(=O)(=O)O)c2)cc1` [Example 32g, 2,2′-[(E)-1,2-Ethenediyl]bis[5-[[4-[(methylsulfonyl)methyl]benzoyl]amino]benzenesulfonic Acid]], the figure is 5.3 µM; as for `COCCOc1ccc(C(=O)Nc2ccc(/C=C/c3ccc(NC(=O)c4ccc(S(C)(=O)=O)cc4)cc3S(=O)(=O)O)c(S(=O)(=O)O)c2)cc1` [Example 40a, 5-[[4-(2-Methoxyethoxy)benzoyl]amino]-2-[(E)-2-[4-[[4-(methanesulfonyl)benzoyl]amino]-2-sulfophenyl]ethenyl]benzenesulfonic Acid], 6.2 µM.
Under `COc1ccc(C(=O)Nc2ccc(CCc3ccc(NC(=O)c4ccc(OC)c(S(=O)(=O)N5CCS(=O)(=O)CC5)c4)cc3S(=O)(=O)O)c(S(=O)(=O)O)c2)cc1S(=O)(=O)N1CCS(=O)(=O)CC1` [Example 43c, 2,2′-(1,2-Ethanediyl)bis[5-[[3-[(1,1-dioxido-4-thiomorpholinyl)sulfonyl]-4-methoxybenzoyl]amino]benzenesulfonic Acid]] stands 4.5 µM.
With `CN(C)c1ccc(C(=O)Nc2ccc(/C=C/c3ccc(NC(=O)c4ccc(N(C)C)c(S(=O)(=O)N5CCOCC5)c4)cc3S(=O)(=O)O)c(S(=O)(=O)O)c2)cc1S(=O)(=O)N1CCOCC1` [Example 32n, 2,2′-[(E)-1,2-Ethenediyl]bis[5-[[4-(dimethylamino)-3-(4-morpholinylsulfonyl)benzoyl]amino]benzenesulfonic Acid]], the IC50 stood at 4.8 µM.
As for `COCCN(CCOC)c1ccc(C(=O)Nc2ccc(/C=C/c3ccc(NC(=O)c4ccc(N(CCOC)CCOC)c(S(=O)(=O)N5CCOCC5)c4)cc3S(=O)(=O)O)c(S(=O)(=O)O)c2)cc1S(=O)(=O)N1CCOCC1` [Example 32m, 2,2′-[(E)-1,2-Ethenediyl]bis[5-[[4-[bis(2-methoxyethyl)amino]-3-(4-morpholinylsulfonyl)benzoyl]amino]benzenesulfonic Acid]], the figure is 4.9 µM.
As for `O=C(CS(=O)(=O)c1cccc(C(=O)Nc2ccc(/C=C/c3ccc(NC(=O)c4cccc(S(=O)(=O)CC(=O)NCCO)c4)cc3S(=O)(=O)O)c(S(=O)(=O)O)c2)c1)NCCO` [Example 37c, 5-[[3-[[2-[(2-Hydroxyethyl)amino]-2-oxoethyl]sulfonyl]benzoyl]amino]-2-[(E)-2-[4-[[3-[[2-[(2-hydroxyethyl)amino]-2-oxoethyl]sulfonyl]benzoyl]amino]-2-sulfo-phenyl]ethenyl]benzenesulfonic Acid], the figure is 6.7 µM.
As for `O=C(Nc1ccc(/C=C/c2ccc(NC(=O)c3ccc(N4CCOCC4)c(S(=O)(=O)N4CCOCC4)c3)cc2S(=O)(=O)O)c(S(=O)(=O)O)c1)c1ccc(N2CCOCC2)c(S(=O)(=O)N2CCOCC2)c1` [Example 32k, 2,2′-[(E)-1,2-Ethenediyl]bis[5-[[4-(4-morpholinyl)-3-(4-morholinylsulfonyl)benzoyl]amino]benzenesulfonic Acid]], the figure is 7 µM.
